From patent US8871280B1, “Compositions and methods for treating fungal activity in plants or soil” (The United States of America, as represented by the …, priority 2011, dated 2014)

Experiments:
Rhizoctonia solani [1] = assay: Greenhouse suppression of damping off of cucumber seedlings in R. solani infested soil amended with plant extract; format: in vivo, Rhizoctonia solani AG-4, isolate Rs 23A
cucumber seeds = assay: Greenhouse assay of seed germination and phytotoxicity, soil treated with plant extract alone; details: cucumber, in vivo, 0.3 % of PE in soil (3000 ppm)
Rhizoctonia solani [2] = assay: Fungicidal vs fungistatic potential (regrowth of mycelial plugs on fresh PDA, 7 days); format: cell-based, Rhizoctonia solani AG-4, isolate Rs 23A
Rhizoctonia solani [3] = assay: Poison food technique (contact action), mycelial growth inhibition in PDA; format: cell-based, Rhizoctonia solani AG-4, isolate Rs 23A; details: for PoisonB1 % inhibition: poison bed experiment 1; for PoisonB2 % inhibition: poison bed experiment 2
Rhizoctonia solani [4] = assay: Filter disk fumigation method, mycelial growth inhibition on PDA; format: cell-based, Rhizoctonia solani AG-4, isolate Rs 23A; details: for Fumig1 % inhibition: fumigation experiment 1; for Fumig2 % inhibition: fumigation experiment 2

## Cc1ccc(C(C)C)c(O)c1 [Thymol]
Rhizoctonia solani [1]; cucumber damping off, soil amendment at 0.3% (v/w), four weeks after sowing
  % Disease suppression (+ PE + R. solani): 27.75%
Rhizoctonia solani [1]; cucumber, 12 seeds sown per pot, infested soil amended with 0.3% PE
  Avg. seed Germination (+ PE + R. solani): 3.33
Cucumber seeds
  Avg. seed germination (+ PE only): 8.00
Rhizoctonia solani [2]; amount oil 15 μL/20 mL plate
  Effect (fumigation): S
  Effect (poison bed, contact action): S
Rhizoctonia solani [2]; amount oil 30 μL/20 mL plate
  Effect (fumigation): S
  Effect (poison bed, contact action): S
Rhizoctonia solani [2]; amount oil 45 μL/20 mL plate
  Effect (fumigation): S
  Effect (poison bed, contact action): S
Rhizoctonia solani [2]; amount oil 60 μL/20 mL plate
  Effect (fumigation): S
  Effect (poison bed, contact action): S
Rhizoctonia solani [2]; amount oil 75 μL/20 mL plate
  Effect (fumigation): S
  Effect (poison bed, contact action): S
Rhizoctonia solani [2]; amount oil 150 μL/20 mL plate
  Effect (fumigation): S
  Effect (poison bed, contact action): S
Rhizoctonia solani [2]; in vitro, fumigation and contact action
  Fungicidal vs fungistatic nature: fungistatic
Rhizoctonia solani [3]; amount oil 15 μL/20 mL plate
  PoisonB1 % inhibition: 100%
  PoisonB2 % inhibition: 42%
Rhizoctonia solani [3]; amount oil 30 μL/20 mL plate
  PoisonB1 % inhibition: 100%
  PoisonB2 % inhibition: 100%
Rhizoctonia solani [3]; amount oil 45 μL/20 mL plate
  PoisonB1 % inhibition: 100%
  PoisonB2 % inhibition: 100%
Rhizoctonia solani [3]; amount oil 60 μL/20 mL plate
  PoisonB1 % inhibition: 100%
  PoisonB2 % inhibition: 100%
Rhizoctonia solani [3]; amount oil 75 μL/20 mL plate
  PoisonB1 % inhibition: 100%
  PoisonB2 % inhibition: 100%
Rhizoctonia solani [3]; amount oil 150 μL/20 mL plate
  PoisonB1 % inhibition: 100%
  PoisonB2 % inhibition: 100%
Rhizoctonia solani [4]; amount oil 15 μL/20 mL plate
  Fumig1 % inhibition: 77%
  Fumig2 % inhibition: 91%
Rhizoctonia solani [4]; amount oil 30 μL/20 mL plate
  Fumig1 % inhibition: 86%
  Fumig2 % inhibition: 93%
Rhizoctonia solani [4]; amount oil 45 μL/20 mL plate
  Fumig1 % inhibition: 90%
  Fumig2 % inhibition: 94%
Rhizoctonia solani [4]; amount oil 60 μL/20 mL plate
  Fumig1 % inhibition: 89%
Rhizoctonia solani [4]; amount oil 75 μL/20 mL plate
  Fumig1 % inhibition: 93%
Rhizoctonia solani [4]; amount oil 150 μL/20 mL plate
  Fumig1 % inhibition: 96%
